Numbers after ± are expanded uncertainties.
Conditions: 298.15 K; 101.33 kPa; Liquid

First: CC(=O)c1ccccc1 [acetophenone]
Second: Cc1ccccc1 [toluene]
The mass density of the first is higher: 1023 ± 0.7 kg/m3 for the first, 862.27 ± 0.23 kg/m3 for the second.

Compared with COc1ccccc1 [anisole], Clc1ccccc1 [chlorobenzene] is higher in mass density: 989.13 ± 0.21 kg/m3 for the first, 1100.9 ± 0.5 kg/m3 for the second.
